# Data as given in US9351981B2, “Use of PKC-iota inhibitors for the treatment of breast cancer” (UNIVERSITY OF SOUTH FLORIDA, priority 2007, dated 2016).
# What was measured:
# IKK-α/IKK-β = assay: Phosphorylation of IKK-α/IKK-β; type: cell-based
# [1] = system: MDA-MB-468 breast cancer cells; assay: Proliferation of MDA-MB-468 breast cancer cells after ICA-1, viable cell count by Trypan blue exclusion; type: cell-based, human; details: vs vehicle control
# Description: Five thousand cells were plated in T-25 cm^2 flasks. Twenty-four hours post vehicle control or ICA-1 treatment, the number of viable cells was counted by Trypan blue exclusion. Data shown are the mean+/−SD of two independent experiments.
# Briefly, MDA-MB-468 breast cancer cells were treated with 0.1 μM or 0.5 μM ICA-1. Cell viability and cell count were determined 24 hours following addition of either vehicle control or ICA-1.
# cancer cells [2] = assay: Chromatin condensation, DAPI staining of the nucleus; type: cell-based
# Excerpt: (§1) In addition, the present inventors have discovered that ICA-1 promotes apoptosis of cancer cells.
# PKC-ι = target: T1, PKC-ι (Homo sapiens, UniProt P41743); assay: Inhibition of PKC-ι activity; type: biochemical
# T1 sequence (P41743 10-596 limits assumed): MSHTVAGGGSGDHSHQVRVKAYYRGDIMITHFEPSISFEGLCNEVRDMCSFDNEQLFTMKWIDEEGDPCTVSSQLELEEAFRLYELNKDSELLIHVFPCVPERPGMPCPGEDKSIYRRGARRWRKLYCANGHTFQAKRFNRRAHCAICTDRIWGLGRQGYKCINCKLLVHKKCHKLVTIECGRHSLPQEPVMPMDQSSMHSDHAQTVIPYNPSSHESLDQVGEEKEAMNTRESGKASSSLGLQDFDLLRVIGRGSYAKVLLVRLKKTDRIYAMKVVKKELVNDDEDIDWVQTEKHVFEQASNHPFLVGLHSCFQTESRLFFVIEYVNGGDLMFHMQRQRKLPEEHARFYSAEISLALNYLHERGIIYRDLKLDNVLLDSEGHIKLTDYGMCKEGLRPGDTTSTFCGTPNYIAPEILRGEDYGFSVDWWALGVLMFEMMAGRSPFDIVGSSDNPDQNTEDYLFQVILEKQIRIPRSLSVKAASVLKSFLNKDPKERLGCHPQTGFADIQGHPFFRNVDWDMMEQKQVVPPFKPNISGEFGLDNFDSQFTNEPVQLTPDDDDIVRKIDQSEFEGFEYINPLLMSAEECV
# cancer cells [3] = assay: DNA fragmentation, TUNEL assay; type: cell-based
# Excerpt: as §1
smiles,measurement,setting,value
"NC(=O)c1ncn(C2CC(COP(=O)(O)O)C(O)C2O)c1N (stereo not drawn) [ICA-1, 1H-imidazole-4-carboxamide,5-amino-1-[2,3-dihydroxy-4-[(phosphonooxy)methyl]cyclopentyl]-,[1R-(1α, 2β, 3β, 4α)]]",phosphorylation of IKK-α/IKK-β,IKK-α/IKK-β,inhibits the phosphorylation
same,decrease of proliferation of MDA-MB-468 cells,"[1]; 0.1 μM ICA-1, 24 hours post-treatment",77%
same,decrease of proliferation of MDA-MB-468 cells,"[1]; 0.5 μM ICA-1, 24 hours post-treatment, P=0.05",50%
same,chromatin condensation in cancer cells,cancer cells [2],induced chromatin condensation
same,activity of PKC-ι,PKC-ι,potently inhibits
same,DNA fragmentation in cancer cells,cancer cells [3],induced DNA fragmentation
